Test results as given in article PMC10814725, “In Vitro Anti-Inflammatory Study of Limonoids Isolated from Chisocheton Plants” (Current Issues in Molecular Biology, 2024).
Where two headings read alike, the source gives them in different places.

Legend:
in vitro = format: cell-based; conditions: mouse
Experimental: (§1) The viability of HEK-Blue^TM hTLR4, […], and THP-1 cells was evaluated using the Dojindo Cell Counting Kit-8 (CCK-8) according to the manufacturer’s instructions. The viability of HEK-Blue^TM hTLR4 and THP-1 cells was assessed under identical conditions to the corresponding assay treatments. HEK-Blue^TM hTLR4 cells (2 × 10^4 cells/well) were seeded in 96-well plates and serum-starved for 24 h at 37 °C in a 5% CO2 atmosphere. After incubation, the culture medium was aspirated, and the cells were washed with saline. High-glucose D-MEM supplemented with 0.1% FBS and 1% penicillin–streptomycin was added and pretreated with or without the 17 limonoids at a concentration of 20 µM for 1 h, followed by LPS addition at a concentration of 10 ng/mL. After 18 h of incubation, a 10% (v/v) CCK-8 solution was added to each well and incubated at 37 °C for 1 h, and cell viability was calculated.

[1] = Cell viability by CCK-8, THP-1 cells; format: cell-based; conditions: human, PMA-differentiated THP-1 cells; for CC50 at 18 h: concentration causing 50% cytotoxicity against THP-1 cells
Experimental: as §1
The THP-1 cells at 5 × 10^4 cells/well were differentiated for 24 h in the presence of PMA (0.5 μM solution in medium). After 24 h of incubation, the culture medium was removed from the 96-well plate and the cells were washed with PBS. Fresh RPMI-1640 medium supplemented with 0.1% FBS and 1% penicillin–streptomycin was added to each well and incubated at 37 °C for overnight. The cells were pretreated with 17 limonoids at the corresponding concentration for 1 h followed by the addition of LPS (10 ng/mL) and incubated at 37 °C for 18 h. Furthermore, CCK-8 solution was added to each well with a final concentration was 10% (v/v) and incubated at 37 °C. After 1 h, the absorbance of each well was measured at […] by using a microplate reader (BioTek Cytation 5 Cell Imaging Multimode Reader). Cell viability was calculated using the following formula: % Cell viability=(Absorbance of sample−Absorbance of Background)/(Absorbance of control−Absorbance of Background)×100 where the absorbance of the sample is the absorbance of cells treated by the compound with or without LPS, the absorbance of the control is the absorbance of LPS (−)-treated cells, and the background absorbance is the absorbance of a well containing only the medium. The results were expressed as 100% cell viability.

[2] = Cell viability by CCK-8, HEK-Blue hTLR4 cells; format: cell-based; conditions: human
Experimental: as §1

TNF-α = test: ELISA of TNF-α production in LPS-stimulated THP-1 cells; format: cell-based, human; conditions: for IC50: Homo sapiens, THP-1, 18 h, read-out: TNF-α IC50
phosphorylated-p38 MAPK = test: Western blotting of phosphorylated-p38 MAPK in LPS-stimulated THP-1 cells; format: cell-based, human; conditions: 10 µM, LPS 10 ng/mL, 18 h, compared to LPS (+) group
Experimental: THP-1 cells were seeded at a density of 1 × 10^6 cells/well in 24-well plates. The cells were then pretreated with a concentration of 10 µM of compounds 3, 5, 9, or 15 for 1 h. Subsequently, LPS (10 ng/mL) was added to the cells, which were incubated for 18 h. The protein concentrations were determined using a bicinchoninic acid (BCA) assay kit.
For Western blot analysis, proteins were separated by SDS-PAGE and transferred onto a polyvinylidene fluoride (PVDF) membrane. The membranes were blocked with 2.5% BSA in Tris-buffered saline-Tween (TBST) for 1 h at room temperature. After three washes with TBST, the membranes were incubated with a diluted primary antibody solution (anti-phosphorylated-p38 MAPK or anti-p38 MAPK) at a 1:1000 dilution for 1 h at room temperature. After three washes with TBS-T, the membranes were incubated with a secondary antibody conjugated to horseradish peroxidase (HRP; 1:4000 dilution) for 30 min at room temperature and subsequently detected by chemiluminescence. Finally, the bands were visualized and quantified using an ImageQuant 800 GxP system (Cytiva, MA, USA). The results were expressed as ratios relative to the reference protein β-actin.

MCP-1 = test: ELISA of MCP-1 production in LPS-stimulated THP-1 cells; format: cell-based, human; conditions: Homo sapiens; LPS-stimulated (10 ng/mL) THP-1 cells, 1, 5, 10, 20 µM, 18 h
Experimental: (§2) The logarithmic growth phase of THP-1 cells was achieved by seeding in 96-well plates at a density of 5 × 10^4 cells/well and differentiated for 24 h in the presence of PMA (0.5 μM solution in medium). After 24 h of incubation, the culture medium was removed from the 96-well plate and the cells were washed with PBS. […] The cells were pretreated with 17 limonoids at the corresponding concentration for 1 h, followed by the addition of LPS (10 ng/mL) and then incubation at 37 °C for 18 h. Finally, 50 μL of each culture supernatant solution was taken to determine the concentrations of IL-6, MCP-1, and IL-1β using the corresponding commercially available human ELISA kits following the manufacturer’s instructions. The analyte concentration in the supernatant was measured in pg/mL, and the inhibition level was expressed as a fold change compared to the LPS (−) control group. To determine the IC50 value, the dose-response data were normalized to the LPS-stimulated-only group, and the percentage of inhibition was calculated using the following formula: % Inhibition=(Absorbance of LPS+ control−Absorbance of compound treatment with LPS)/(Absorbance of LPS+ control−Absorbance of LPS− control)×100
(§3) Furthermore, the % inhibition data were interpolated into linear equations to determine the IC50 values.

IL-6 = test: ELISA of IL-6 production in LPS-stimulated THP-1 cells; format: cell-based, human; conditions: Homo sapiens, THP-1, 18 h, LPS-stimulated (10 ng/mL) THP-1 cells, 1, 5, 10, 20 µM, 18 h
Experimental: as §2, §3

[3] = system: TNF-α, IL-6, IL-1β, and MCP-1; test: ELISA of pro-inflammatory markers overall (TNF-α, IL-6, IL-1β, MCP-1) in LPS-stimulated THP-1 cells; format: cell-based; conditions: Homo sapiens, read-out: Overall IC50 values for the evaluated pro-inflammatory markers
Experimental: The logarithmic growth phase of THP-1 cells was achieved by seeding in 96-well plates at a density of 5 × 10^4 cells/well and differentiated for 24 h in the presence of PMA (0.5 μM solution in medium). After 24 h of incubation, the culture medium was removed from the 96-well plate and the cells were washed with PBS. Fresh RPMI-1640 medium supplemented with 0.1% FBS and 1% Penicillin–Streptomycin was added to each well and incubated at 37 °C overnight. The cells were pretreated with 17 limonoids at the corresponding concentration for 1 h, followed by the addition of LPS (10 ng/mL) and then incubation at 37 °C for 18 h. Finally, 50 μL of each culture supernatant solution was taken to determine the concentrations of IL-6, MCP-1, and IL-1β using the corresponding commercially available human ELISA kits following the manufacturer’s instructions. The analyte concentration in the supernatant was measured in pg/mL, and the inhibition level was expressed as a fold change compared to the LPS (−) control group. To determine the IC50 value, the dose-response data were normalized to the LPS-stimulated-only group, and the percentage of inhibition was calculated using the following formula: % Inhibition=(Absorbance of LPS+ control−Absorbance of compound treatment with LPS)/(Absorbance of LPS+ control−Absorbance of LPS− control)×100
as §3

[4] = LPS 10 ng/mL, read-out: Viability Cell (%) THP-1 LPS-Induced (10 ng/mL)
[5] = without LPS, read-out: Viability Cell (%) THP-1 Without LPS
[6] = Viability Cell (%) HEK-Blue hTLR4 LPS-Induced (10 ng/mL)
[7] = Viability Cell (%) HEK-Blue hTLR4 Without LPS
[8] = RAW264.7 macrophages, 5 µM, read-out: Viability cell (%) RAW 264.7 5 µM
[9] = RAW264.7 macrophages, 10 µM, read-out: Viability cell (%) RAW 264.7 10 µM
[10] = RAW264.7 macrophages, 20 µM, read-out: Viability cell (%) RAW 264.7 20 µM

| SMILES | viability at 5 µM (in vitro) | viability at 10 µM (in vitro) | viability at 20 µM (in vitro) | viability at 18 h, 10 µM [1, 4] | viability at 18 h, 10 µM [1, 5] | viability at 18 h, 20 µM [2, 6] | viability at 18 h, 20 µM [2, 7] | also measured |
| --- | --- | --- | --- | --- | --- | --- | --- | --- |
| CC(=O)O[C@H]1[C@@H](OC(C)=O)[C@]2(C)[C@H](CC[C@@]3(C)[C@H](c4ccoc4)C(=O)[C@H]4O[C@@]423)[C@@]2(C)C=CC(=O)C(C)(C)[C@H]12 [Compound 10, 6α-acetylepoxyazadirone] | 93.2 ± 4.2% | 82.1 ± 1.31% | 86.1 ± 4.07% | > 99.9% | > 99.9% | > 99.9% | > 99.9% | – |
| CC(=O)O[C@H]1[C@@H](OC(C)=O)[C@]2(C)[C@H](CCC3=C(c4ccoc4)C[C@@H](O)[C@]32C)[C@@]2(C)C=CC(=O)C(C)(C)[C@H]12 [Compound 8, toonaciliatone C] | – | – | – | 94 ± 9.84% | > 99.9% | – | – | viability at 5 µM (in vitro; [8]): 89.5 ± 9.38%; viability at 10 µM (in vitro; [9]): 94.75 ± 0.32%; viability at 20 µM (in vitro; [10]): 87.5 ± 3.33%; viability at 18 h, 20 µM ([2]; HEK-Blue hTLR4 cells, 20 µM, 18 h, LPS 10 ng/mL, read-out: Viability Cell (%) HEK-Blue hTLR4 LPS-Induced (10 ng/mL)): 88 ± 6.37%; viability at 18 h, 20 µM ([2]; HEK-Blue hTLR4 cells, 20 µM, 18 h, without LPS, read-out: Viability Cell (%) HEK-Blue hTLR4 Without LPS): > 99.9% |
| C[C@]12C3=CC[C@@H](c4ccoc4)[C@]3(C)CC[C@@H]1[C@@]1(C)C(=O)C=C[C@@]3(C)CO[C@@H]([C@H]2O)[C@H]13 [Compound 12, ceramicine B] | > 99.9% | > 99.9% | 89.4 ± 6.9% | 96.7 ± 4.3% | > 99.9% | > 99.9% | > 99.9% | IC50 (TNF-α): 13.9 µM; TNF-α SI (selectivity index, CC50/IC50) (TNF-α; THP-1 CC50 / TNF-α IC50): 2.66; Effect on p-p38 MAPK levels (phosphorylated-p38 MAPK): significantly suppressed; CC50 at 18 h [1]: 36.9 µM |
| CC(=O)O[C@@H]1C[C@H]2C(C)(C)C(=O)C=C[C@]2(C)[C@H]2CC[C@]3(C)C(C(=O)C[C@H]3c3ccoc3)[C@@]21C (stereo partly drawn) [Compound 2, 7α-acetylneotrichilenone] | 96.2 ± 3.67% | > 99.9% | > 99.9% | > 99.9% | > 99.9% | 75.5 ± 13.8% | 61.2 ± 1.22% | – |
| C[C@@H]1C[C@H]2[C@@H]3CCC4=CC(=O)C=C[C@]4(C)[C@@]3(F)[C@@H](O)C[C@]2(C)[C@@]1(O)C(=O)CO [Dex, dexamethasone, reference compound] | – | – | – | – | – | – | – | IC50 (TNF-α; LPS-stimulated (10 ng/mL) THP-1 cells, 1, 5, 10, 20 µM, 18 h): 2.17 µM; CC50 at 18 h [1]: 28.2 µM; IC50 (MCP-1): 0.5 µM; IC50 (IL-6): 0.72 µM |
| COc1cc([C@@H]2c3cc4c(cc3[C@@H](O[C@@H]3O[C@@H]5CO[C@@H](C)O[C@H]5[C@H](O)[C@H]3O)[C@H]3COC(=O)[C@H]23)OCO4)cc(OC)c1O [Etoposide, reference compound] | – | – | – | – | – | – | – | viability at 5 µM (in vitro; [8]): 67.5 ± 2.36%; viability at 10 µM (in vitro; [9]): 54.8 ± 2.58%; viability at 20 µM (in vitro; [10]): 38.9 ± 3.19% |
| CC(=O)O[C@H]1[C@@H](OC(C)=O)[C@@]2(C)C3=CC[C@@H](C4=CCOC4=O)[C@]3(C)CC[C@@H]2[C@@]2(C)C=CC(=O)C(C)(C)[C@H]12 [Compound 6, lasiocarpine A] | – | – | – | > 99.9% | 90.7 ± 3.82% | – | – | viability at 5 µM (in vitro; 5 µM, read-out: Viability cell (%) RAW 264.7 5 µM): 103 ± 6.05%; viability at 10 µM (in vitro; 10 µM, read-out: Viability cell (%) RAW 264.7 10 µM): > 99.9%; viability at 20 µM (in vitro; 20 µM, read-out: Viability cell (%) RAW 264.7 20 µM): 96.7 ± 2.14%; viability at 18 h, 20 µM ([2]; 20 µM, 18 h, LPS 10 ng/mL, read-out: Viability Cell (%) HEK-Blue hTLR4 LPS-Induced (10 ng/mL)): 58.3 ± 1.89%; viability at 18 h, 20 µM ([2]; 20 µM, 18 h, without LPS, read-out: Viability Cell (%) HEK-Blue hTLR4 Without LPS): 77.1 ± 2.13% |
| CC(=O)O[C@H]1[C@@H](OC(C)=O)[C@@]2(C)C3C(=O)C[C@@H](c4ccoc4)[C@]3(C)CC[C@@H]2[C@@]2(C)C=CC(=O)C(C)(C)[C@H]12 (some centres unmarked) [Compound 7, toonaciliatone F] | > 99.9% | > 99.9% | 95.9 ± 2.19% | > 99.9% | > 99.9% | 87.3 ± 4% | 92.9 ± 2.11% | – |
| CC1(C)C(=O)C=C[C@]2(C)[C@H]3CC[C@]4(C)C(C(=O)C[C@H]4c4ccoc4)[C@]3(C)[C@H](O)C[C@@H]12 (stereo partly drawn) [Compound 1, 7α-hydroxyneotrichilenone] | > 99.9% | > 99.9% | > 99.9% | > 99.9% | > 99.9% | > 99.9% | > 99.9% | – |
| C[C@]12C3=CC[C@@H](C4=CC(O)OC4=O)[C@]3(C)CC[C@@H]1[C@@]1(C)C(=O)C=C[C@@]3(C)CO[C@@H]([C@H]2O)[C@H]13 (some centres unmarked) [Compound 14, pentandricine] | > 99.9% | 88.2 ± 3.86% | 91.3 ± 4.19% | 91.1 ± 9.03% | > 99.9% | > 99.9% | > 99.9% | IC50 [3]: < 20 µM |
